Data: article PMC4854315, “Discovery of a novel allosteric inhibitor-binding site in ERK5: comparison with the canonical kinase hinge ATP-binding site” (Acta Crystallographica. Section D, Structural Biology, 2016)

How the values were obtained:
Experiment in all cases: Z'-LYTE kinase panel
Assay type in all cases: biochemical
[1] = molecular target: T1, EPHA1 (Homo sapiens, UniProt P21709)
T1 construct: purchased ThermoFisher (SelectScreen, Z'-LYTE)
T1 sequence (P21709 26-976): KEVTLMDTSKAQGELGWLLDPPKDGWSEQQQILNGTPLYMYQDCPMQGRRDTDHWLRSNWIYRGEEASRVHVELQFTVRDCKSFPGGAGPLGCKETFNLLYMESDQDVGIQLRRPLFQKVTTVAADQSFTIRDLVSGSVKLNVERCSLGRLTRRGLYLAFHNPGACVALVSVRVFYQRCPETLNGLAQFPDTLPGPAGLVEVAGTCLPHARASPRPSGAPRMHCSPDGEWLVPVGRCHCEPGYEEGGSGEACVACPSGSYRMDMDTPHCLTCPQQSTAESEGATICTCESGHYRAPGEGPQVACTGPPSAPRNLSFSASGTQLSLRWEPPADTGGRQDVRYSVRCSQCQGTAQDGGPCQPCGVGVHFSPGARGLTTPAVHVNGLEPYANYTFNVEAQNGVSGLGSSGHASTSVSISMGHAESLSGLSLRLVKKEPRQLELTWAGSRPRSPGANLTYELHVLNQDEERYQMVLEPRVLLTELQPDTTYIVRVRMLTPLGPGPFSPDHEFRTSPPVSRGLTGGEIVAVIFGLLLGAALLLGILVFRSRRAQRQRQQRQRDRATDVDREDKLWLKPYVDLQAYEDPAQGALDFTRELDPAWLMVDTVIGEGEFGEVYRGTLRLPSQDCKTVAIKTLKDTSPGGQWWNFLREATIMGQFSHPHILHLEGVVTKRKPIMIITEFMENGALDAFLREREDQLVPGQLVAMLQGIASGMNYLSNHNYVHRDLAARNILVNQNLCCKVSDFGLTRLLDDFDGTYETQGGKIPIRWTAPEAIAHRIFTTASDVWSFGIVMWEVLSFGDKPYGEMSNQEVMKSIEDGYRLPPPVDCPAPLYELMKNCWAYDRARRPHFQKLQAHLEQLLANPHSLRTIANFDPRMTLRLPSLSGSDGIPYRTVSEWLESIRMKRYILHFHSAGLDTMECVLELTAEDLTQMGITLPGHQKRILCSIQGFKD
Outline: (§1)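 Screened at 10 µM against a 225-kinase panel; the Z′-LYTE standard assay gave percentage inhibition values.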

[2] = molecular target: T2, INSR (Homo sapiens, UniProt P06213)
T2 construct: purchased ThermoFisher (SelectScreen, Z'-LYTE)
T2 sequence (P06213 28-1382): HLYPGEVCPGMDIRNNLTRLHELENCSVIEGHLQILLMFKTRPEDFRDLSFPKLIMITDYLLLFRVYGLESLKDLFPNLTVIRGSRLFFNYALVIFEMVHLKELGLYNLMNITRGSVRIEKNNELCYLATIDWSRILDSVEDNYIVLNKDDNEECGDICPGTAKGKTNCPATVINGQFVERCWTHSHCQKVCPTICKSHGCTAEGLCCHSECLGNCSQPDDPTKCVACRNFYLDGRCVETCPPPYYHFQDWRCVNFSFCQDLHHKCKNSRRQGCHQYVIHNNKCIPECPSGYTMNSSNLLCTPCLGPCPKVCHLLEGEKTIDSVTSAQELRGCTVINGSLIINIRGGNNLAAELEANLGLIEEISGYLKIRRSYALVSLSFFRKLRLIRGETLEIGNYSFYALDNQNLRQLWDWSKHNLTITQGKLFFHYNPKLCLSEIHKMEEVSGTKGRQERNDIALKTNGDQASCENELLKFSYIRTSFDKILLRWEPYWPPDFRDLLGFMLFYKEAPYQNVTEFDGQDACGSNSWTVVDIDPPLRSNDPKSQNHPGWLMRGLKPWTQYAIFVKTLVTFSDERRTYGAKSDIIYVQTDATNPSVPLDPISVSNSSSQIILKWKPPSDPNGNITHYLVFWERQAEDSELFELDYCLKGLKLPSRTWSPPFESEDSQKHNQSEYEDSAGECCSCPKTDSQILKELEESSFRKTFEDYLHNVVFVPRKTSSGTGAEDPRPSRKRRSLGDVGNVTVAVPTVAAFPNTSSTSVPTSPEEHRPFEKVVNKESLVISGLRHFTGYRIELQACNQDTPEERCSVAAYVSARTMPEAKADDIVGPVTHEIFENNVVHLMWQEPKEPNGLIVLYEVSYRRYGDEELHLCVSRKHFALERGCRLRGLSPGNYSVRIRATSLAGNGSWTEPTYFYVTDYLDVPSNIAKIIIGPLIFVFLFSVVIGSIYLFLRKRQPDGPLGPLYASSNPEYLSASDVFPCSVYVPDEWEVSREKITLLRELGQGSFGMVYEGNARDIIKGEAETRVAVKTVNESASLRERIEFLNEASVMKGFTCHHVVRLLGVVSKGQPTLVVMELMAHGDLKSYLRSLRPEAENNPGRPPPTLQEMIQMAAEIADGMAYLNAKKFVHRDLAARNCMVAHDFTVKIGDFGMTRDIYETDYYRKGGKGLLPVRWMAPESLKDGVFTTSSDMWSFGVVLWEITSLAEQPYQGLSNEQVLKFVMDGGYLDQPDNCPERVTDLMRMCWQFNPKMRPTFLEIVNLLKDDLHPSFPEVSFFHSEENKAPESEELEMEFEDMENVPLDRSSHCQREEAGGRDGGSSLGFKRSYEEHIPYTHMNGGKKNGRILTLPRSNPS
Outline: as §1

[3] = molecular target: T3, DCAMKL2 (DCK2) (Homo sapiens, UniProt Q8N568)
T3 construct: purchased ThermoFisher (SelectScreen, Z'-LYTE)
T3 sequence (Q8N568 1-766): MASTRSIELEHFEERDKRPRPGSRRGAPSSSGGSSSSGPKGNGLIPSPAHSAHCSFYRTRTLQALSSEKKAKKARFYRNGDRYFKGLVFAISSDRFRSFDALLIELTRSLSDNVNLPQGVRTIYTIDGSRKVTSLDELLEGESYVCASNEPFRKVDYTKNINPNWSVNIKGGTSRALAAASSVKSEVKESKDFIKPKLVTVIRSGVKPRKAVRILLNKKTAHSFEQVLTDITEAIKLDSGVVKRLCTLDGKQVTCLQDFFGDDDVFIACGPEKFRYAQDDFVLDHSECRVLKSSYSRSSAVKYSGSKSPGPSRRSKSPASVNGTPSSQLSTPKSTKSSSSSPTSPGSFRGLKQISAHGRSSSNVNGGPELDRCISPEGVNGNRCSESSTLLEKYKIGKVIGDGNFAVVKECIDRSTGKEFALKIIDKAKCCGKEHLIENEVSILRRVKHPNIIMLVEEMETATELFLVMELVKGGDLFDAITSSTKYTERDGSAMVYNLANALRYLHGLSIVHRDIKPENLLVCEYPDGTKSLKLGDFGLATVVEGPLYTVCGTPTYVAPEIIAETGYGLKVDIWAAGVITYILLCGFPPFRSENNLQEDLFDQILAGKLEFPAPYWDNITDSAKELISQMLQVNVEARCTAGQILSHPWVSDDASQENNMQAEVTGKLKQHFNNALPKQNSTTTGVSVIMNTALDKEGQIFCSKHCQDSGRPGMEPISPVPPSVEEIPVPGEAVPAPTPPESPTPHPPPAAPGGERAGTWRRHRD
Outline: as §1

[4] = molecular target: T4, TBK1 (Homo sapiens, UniProt Q9UHD2)
T4 construct: purchased ThermoFisher (SelectScreen, Z'-LYTE)
T4 sequence (Q9UHD2 1-729): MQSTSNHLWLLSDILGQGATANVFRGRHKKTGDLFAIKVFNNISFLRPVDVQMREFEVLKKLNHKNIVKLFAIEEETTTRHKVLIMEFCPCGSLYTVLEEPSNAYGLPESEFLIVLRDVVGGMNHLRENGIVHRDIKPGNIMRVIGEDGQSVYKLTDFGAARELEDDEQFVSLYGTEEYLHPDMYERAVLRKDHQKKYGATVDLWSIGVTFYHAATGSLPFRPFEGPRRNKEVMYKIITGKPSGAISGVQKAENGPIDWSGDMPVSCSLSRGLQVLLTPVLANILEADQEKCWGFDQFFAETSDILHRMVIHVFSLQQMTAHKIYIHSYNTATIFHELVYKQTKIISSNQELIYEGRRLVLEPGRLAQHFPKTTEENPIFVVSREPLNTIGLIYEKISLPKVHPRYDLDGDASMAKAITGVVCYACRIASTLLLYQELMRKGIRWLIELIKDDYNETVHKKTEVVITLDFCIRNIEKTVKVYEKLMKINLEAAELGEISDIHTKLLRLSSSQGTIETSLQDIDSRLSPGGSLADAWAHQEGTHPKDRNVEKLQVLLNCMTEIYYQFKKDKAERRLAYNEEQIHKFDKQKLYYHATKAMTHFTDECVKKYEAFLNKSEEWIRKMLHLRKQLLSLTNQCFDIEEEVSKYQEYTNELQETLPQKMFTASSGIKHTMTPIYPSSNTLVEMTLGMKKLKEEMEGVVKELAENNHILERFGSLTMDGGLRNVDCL
Outline: as §1

[5] = molecular target: T5, MAPK13 (p38 delta) (Homo sapiens, UniProt O15264)
T5 construct: purchased ThermoFisher (SelectScreen, Z'-LYTE)
T5 sequence (O15264 1-365): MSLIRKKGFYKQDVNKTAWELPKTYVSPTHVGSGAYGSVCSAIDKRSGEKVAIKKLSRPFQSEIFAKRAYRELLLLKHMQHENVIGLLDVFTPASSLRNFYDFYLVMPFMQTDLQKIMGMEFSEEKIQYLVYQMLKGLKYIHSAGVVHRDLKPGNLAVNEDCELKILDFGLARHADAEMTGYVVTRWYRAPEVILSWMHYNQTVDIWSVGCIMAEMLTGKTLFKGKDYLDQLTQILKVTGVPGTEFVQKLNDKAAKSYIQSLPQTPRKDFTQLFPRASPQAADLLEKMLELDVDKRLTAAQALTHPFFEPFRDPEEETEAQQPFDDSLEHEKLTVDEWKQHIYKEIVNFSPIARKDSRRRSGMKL
Outline: as §1

Row | Molecule | inhibition at 10 µM [1] | inhibition at 10 µM [2] | inhibition at 10 µM [3] | inhibition at 10 µM [4] | inhibition at 10 µM [5] | EPHA1 % Inhibition ([1]; 10 µM compound, ATP Km app) | INSR % Inhibition ([2]; 10 µM compound, ATP Km app) | DCAMKL2 (DCK2) % Inhibition ([3]; 10 µM compound, ATP Km app) | TBK1 % Inhibition ([4]; 10 µM compound, ATP Km app) | MAPK13 (p38 delta) % Inhibition ([5]; 10 µM compound, ATP Km app)
1 | Cc1ncc(-c2nc(Nc3ccc(C(=O)NCCN4CCCCC4)cc3)ncc2F)n1C(C)C [Compound 3] | 98% | 69% | 62% | 86% | 65% |  |  |  |  | 
2 | Cc1cc(Nc2nc(N)nn2C(=O)NC(C)C)ccc1Cl [Compound 5] | 11% | 5.44% | -1.9% | 27% | -0.07% |  |  |  |  | 
3 | XMD8-92 [Compound 2, reference compound] |  |  |  |  |  | 9.48% | 4% | 61% | 43% | 1.54%
